What was measured:
[1] = target: T1, Crm1 (Homo sapiens, UniProt O14980); test: Rev-GFP nuclear export inhibition assay (U2OS-RevGFP cells); assay type: cell-based; conditions: ~1 hr incubation with compound, read-out: Rev Export (%)/[IC50] OR Cytotoxicity[EC50]
T1 construct: endogenous in cells; host or cells: U2OS-RevGFP cells
Procedure: The evaluation of the affinity of compounds for the Crm1 protein was determined in the RevGFP assay.
Experimental protocol: Rev is a protein from human immunodeficiency virus type 1 (HIV-1) and contains a nuclear export signal (NES) in its C-terminal domain and a nuclear localization signal (NLS) in its N-terminal domain. Nuclear export of Rev protein is dependent on the classical NES/Crm1 pathway (Neville et al, 1997). Nuclear accumulation of Rev can be observed in cells treated with specific inhibitors of Crm1, such as LMB (Kau et al, 2003). In this assay, U2OS-RevGFP cells are seeded onto clear-bottom, black, 384-well plates the day before the experiment. Compounds are serially diluted 1:2 starting from 40 μM in a separate 384-well plate in DMEM, and then transferred onto cells. Cells are incubated with compound for ˜1 hr before fixation with 3.7% formaldehyde and nuclei staining with Hoechst 33258. The amount of GFP in cell nuclei will be measured and compound IC50s determined (Kau et al, 2003).

[2] = test system: MM.1S, MM.1R, Jurkat and HS-Sultan cells; test: Isobologram analysis of the interaction with Bortezomib; assay type: cell-based
Procedure: The MTT cell proliferation assay was used to study the cytotoxic properties of the compounds. The assay was performed according to the method described by Roche Molecular Biochemicals with minor modifications. The assay is based on the cleavage of the tetrazolium salt, MTT, in the presence of an electron-coupling reagent. The water-insoluble formazan salt produced must be solubilized in an additional step. Cells, grown in a 96-well tissue culture plate, are incubated with the MTT solution for approximately 4 hours. After this incubation period, a water-insoluble formazan dye is formed. After solubilization, the formazan dye is quantitated using a scanning multi-well spectrophotometer (ELISA reader). […] The cells were seeded at 1.5×10^4 cells in each well of 96-well plate in 200 μL of fresh culture medium and were allowed to attach for overnight. The stock solutions of the compounds were diluted in cell culture medium to obtain eight concentrations of each drug, ranging from 1 nM to 20 μM. After 72 h of treatment the medium was aspirated and the cells were washed once with sterile 1×PBS. […]
Tumor cells were assayed for viability in the absence or presence of drug/control treatments, and drug combination dose response studies were analyzed graphically by correlating the fraction of surviving cells with drug concentrations for each drug.r

[3] = test system: MM1.S xenografts; test: MM1.S xenograft growth; assay type: in vivo
Procedure: FIG. 4 presents activity data for Example 1 (KPT-0127) administered at 150 mg/kg QD×5. […] (A) MM1.S cells were grown as xenografts to 130 mm^3 (small) or (B) 1350 mm^3 (large) sizes and were treated with KPT-0127 SC or dexamethasone IP daily×5 and growth was assessed. Treatment of large xenografts is ongoing (data shown after 5 doses of KPT-0127).

[4] = test system: HCT-116 xenografts; test: HCT-116 xenograft growth and tolerability; assay type: in vivo
Procedure: FIG. 5 presents activity data for Example 1 (KPT-127) administered at 150 mg/kg QD×7. […] HCT-116 xenografts were grown to ˜150 mm^3 and low dose KPT-0127 administered. On day 9, when the tumors were ˜350 mm^3, KPT-127 dose was escalated to 150 mg/kg sc daily. Irinotecan was used as a control.

[5] = test system: panel of ~570 solid and hematologic cancer cell lines; test: Cytotoxicity assay (CellTiter 96 AQueous One Solution, MTS) in cancer cell line panel; assay type: cell-based; conditions: 72 hours exposure, IC50 determined by MTS assay
Procedure: Cytotoxicity Assay (CellTiter 96® AQueous One Solution Cell Proliferation Assay) Cells were seeded into 96-well plates and compounds at the indicated concentrations were added to the cells after overnight incubation. Seventy two hrs later the proliferation assay was done in the following way: Twenty microliters of CellTiter 96® AQueous One Solution Reagent was added into each well. After 1 hour at 37° C. in a humidified, 5% CO2 atmosphere, the absorbance at 490 nm was recorded using an ELISA plate reader. Test compound was assayed in numerous cancer cell lines using the above assay protocol. Results are depicted in FIG. 3.

[6] = test system: normal cells; test: Cytotoxicity assay (MTS), normal cells; assay type: cell-based; conditions: 72 hours exposure
[7] = test system: Human myeloma cell lines (H929); test: Combination study with doxorubicin, apoptosis by anti-caspase-3 assay; assay type: cell-based; conditions: H929 cells, compound 16 hrs then doxorubicin 2 umol/L for 4 h
Procedure: Combinations studies with doxorubicin. Human myeloma cell lines (H929) grown at 2×10^6 cells/mL (high density) were incubated with and without Example 1 for 16 h followed by doxorubicin (2 umol/L; Sigma) for 4 h and assayed for apoptosis by anti-caspase-3 assay (BD Pharmingen).

T1 sequence (O14980 whole entry): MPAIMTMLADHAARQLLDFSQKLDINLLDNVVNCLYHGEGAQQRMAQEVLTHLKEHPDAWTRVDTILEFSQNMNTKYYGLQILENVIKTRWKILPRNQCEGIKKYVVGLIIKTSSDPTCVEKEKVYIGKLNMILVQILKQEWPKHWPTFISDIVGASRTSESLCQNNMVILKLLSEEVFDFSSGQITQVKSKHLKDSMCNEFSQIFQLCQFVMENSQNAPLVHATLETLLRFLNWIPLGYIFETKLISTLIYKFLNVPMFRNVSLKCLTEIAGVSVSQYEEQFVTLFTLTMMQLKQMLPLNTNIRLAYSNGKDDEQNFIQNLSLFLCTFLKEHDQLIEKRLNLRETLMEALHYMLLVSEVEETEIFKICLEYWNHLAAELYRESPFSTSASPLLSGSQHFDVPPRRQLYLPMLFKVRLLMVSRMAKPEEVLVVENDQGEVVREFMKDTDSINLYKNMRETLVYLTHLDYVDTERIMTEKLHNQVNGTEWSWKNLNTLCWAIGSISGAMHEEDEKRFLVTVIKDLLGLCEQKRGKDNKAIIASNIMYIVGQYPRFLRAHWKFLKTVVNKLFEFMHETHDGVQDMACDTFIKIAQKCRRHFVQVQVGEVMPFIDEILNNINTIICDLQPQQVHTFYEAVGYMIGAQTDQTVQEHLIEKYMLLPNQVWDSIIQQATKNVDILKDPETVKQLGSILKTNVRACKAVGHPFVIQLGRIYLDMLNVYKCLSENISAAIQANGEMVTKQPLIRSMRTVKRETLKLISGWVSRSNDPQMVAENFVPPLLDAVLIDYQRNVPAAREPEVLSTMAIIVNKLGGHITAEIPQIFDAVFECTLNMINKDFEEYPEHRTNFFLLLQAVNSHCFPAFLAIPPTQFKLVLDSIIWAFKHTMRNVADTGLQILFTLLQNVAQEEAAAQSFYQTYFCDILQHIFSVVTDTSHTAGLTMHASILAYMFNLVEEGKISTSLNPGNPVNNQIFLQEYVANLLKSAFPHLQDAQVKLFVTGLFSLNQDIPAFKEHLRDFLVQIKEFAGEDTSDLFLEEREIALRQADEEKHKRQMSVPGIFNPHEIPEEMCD

## CC(C)OC(=O)/C=C\n1cnc(-c2cc(C(F)(F)F)cc(S(C)(=O)=O)c2)n1 [Example 67, (Z)-isopropyl 3-(3-(3-(methylsulfonyl)-5-(trifluoromethyl)phenyl)-1H-1,2,4-triazol-1-yl)acrylate]
[1]
  IC50: < 1 µM

## CC(C)OC(=O)/C=C\n1cnc(-c2cccc(Cl)c2)n1 [Example 1, (Z)-3-[3-(3-Chloro-phenyl)-[1,2,4]-triazol-1-yl]-acrylic acid isopropyl ester]
[2]
  interaction with Bortezomib (isobologram analysis): synergistic interactions with Bortezomib
[3]; 150 mg/kg QD×5 SC, xenografts grown to 130 mm^3
  growth of small MM1.S xenografts: inhibits growth
[3]; 150 mg/kg SC, xenografts 1300 mm^3, data after 5 doses, treatment ongoing
  growth of large MM1.S xenografts: inhibits growth
[4]; 150 mg/kg QD×7, low dose from ~150 mm^3, escalated on day 9 (~350 mm^3) to 150 mg/kg sc daily
  growth of moderate HCT-116 xenografts: inhibits moderate HCT-116 xenografts
[4]; 150 mg/kg sc daily
  tolerability: well tolerated
[4]; HCT-116 xenograft study
  clinical chemistries and CBCs: not significantly affected
[5]
  cytotoxicity in hematologic and solid tumor cell lines: potent and selective cytotoxicity
[6]
  effect on normal cells: minimal effect on normal cells
[7]
  sensitization to Topo II inhibitor Doxorubicin (apoptosis): sensitizes non-Cyclin resistant Myeloma H929 cells to Topo II inhibitor Doxorubicin

## CCOC(=O)/C=C\n1cnc(-c2cc(F)cc(Cl)c2)n1 [Example 82, 3-[3-(3-Chloro-5-fluoro-phenyl)-[1,2,4]triazol-1-yl]-acrylic acid ethyl ester]
[1]
  IC50: 1 to 10 µM

## CC(C)N(C)C(=O)/C=C\c1n[nH]c(-c2cccc(Cl)c2)n1 [Example 95, 3-[5-(3-Chloro-phenyl)-1H-[1,2,4]triazol-3-yl]-N-isopropyl-N-methyl-acrylamide]
[1]
  IC50: > 10 µM
